Source: BindingDB's records for doi:10.1021/jm00004a013 (Solvay Pharma, 1995)

Molecular target: Polyunsaturated fatty acid 5-lipoxygenase (Cavia porcellus)
Test: Inhibitory activity against partially-purified Guinea pig PMN 5-lipoxygenase

IC50: 2800 nM
Compound: Cc1ccnc(N2CCN(CCc3c(C)n4c5c(cc(O)cc35)CCC4)CC2)c1 [2-Methyl-1-{2-[4-(4-methyl-pyridin-2-yl)-piperazin-1-yl]-ethyl}-5,6-dihydro-4H-pyrrolo[3,2,1-ij]quinolin-8-ol]
